Laboratory results: patent US8350097B2, “Therapeutic compounds” (priority 2007, dated 2013)
Where two headings read alike, the source gives them in different places.

Columns and labels:
Beagle dogs [1] = test: Hemodynamic effects (blood pressure) in beagle dogs, bolus IV; format: in vivo, dog; settings: 4 min after bolus IV
Procedure: The study was a crossover design. […] The MTD was defined as the dose that reduced mean arterial blood pressure (MAP) by 50% or to less than 50 millimeters of mercury (mmHg or mm Hg). All animals received supplemental oxygen and, if needed, ventilatory support after 4 min of apnea.
Hemodynamic data, such as mean arterial pressure (MAP), were recorded at baseline, 1, 2, 4, 8, 15, 20 and 30 min. Compound 1 was administered at 5, 10, 15 and 30 mg/kg to 6, 4, 3 and 3 dogs respectively. […] Data were analyzed with a 2-way ANOVA followed by t-test with Bonferroni correction for multiple comparisons.

male Sprague-Dawley rats = test: Anesthetic effects in rats, bolus IV (LORR model of general anesthesia); format: in vivo, rat
Procedure: (§1) Also measured was minimum dose to achieve LORR and maximum tolerated dose (MTD).
(§2) The ranges of doses studied were 2, 3, 4, 7, 14 and 21 mg/kg for Compound 1 and 3.5, 4.0, 7.0 and 14.0 mg/kg for […].

[2] = as above; format: in vivo, rat; settings: male, Sprague-Dawley, rat, in vivo, read-out: MTD (maximum tolerated dose)
Procedure: as §1, §2

Beagle dogs [3] = settings: dog, in vivo
Male descented ferrets = test: Pro-emetic activity in ferrets; settings: 6 ferrets, IV infusion 15 min at 1 mg/kg/min, 45 min observation
Procedure: Male descented ferrets weighing 1.0-1.5 kg with vascular access ports in the jugular vein were housed on a 12/12-hour light/dark cycle under controlled temperature, with food and water provided ad libitum. On each study day, food was presented to ferrets one hour prior to dosing. Immediately prior to dosing, food and water were removed. A 1% Compound 1 formulation, prepared as described in Example 2 and formulated in accordance with Example 5, or […] was administered by IV infusion to the ferrets; see Wynn R L et al, 1993, Eur J Pharmacol 241, 42 re […] administration in ferrets. After administration of Compound 1 or […], animals were placed in clean, transparent cages (with lids) and left unrestrained for a 45-min observation period by an observer blinded to the specific treatment administered.
Episodes of retching and/or vomiting were considered separate episodes when the interval between retches and/or vomits exceeded 5 sec.

Q: For CC[C@@H](C)c1cccc(C(C)C)c1O [Compound 1, (R)-(−)-2-sec-butyl-6-isopropylphenol], which “MAP % change from baseline” value (Beagle dogs [1]; 10 mg/kg) is on record?
A: 5%

Q: What about the “MAP % change from baseline” value (Beagle dogs [1]; 15 mg/kg) of the same compound?
A: −19%

Q: And the “MAP % change from baseline” value (Beagle dogs [1]; 30 mg/kg)?
A: −41%

Q: And the “HD50 (dose required to cause 50% of the rats to lose righting reflex)” value (male Sprague-Dawley rats)?
A: 2.3 mg/kg

Q: What about the “HD7 min (dose required to produce 7 minutes of anesthesia)” value (male Sprague-Dawley rats) of the same compound?
A: 3.4 mg/kg

Q: What about the “TI (therapeutic index; ratio of MTD to HD7 min)” value (male Sprague-Dawley rats) of the same compound?
A: 4.1

Q: And the “production of LORR by dose” value (male Sprague-Dawley rats; 6 rats per dose group)?
A: LORR at all doses of at least 3 mg/kg

Q: And the deaths (male Sprague-Dawley rats; 6 rats per dose group, dose as stated)?
A: Three rats died when administered 21 mg/kg

Q: And the MTD [2]?
A: 14 mg/kg

Q: And the “anesthetic depth by Cumulative sedation scores” value (Beagle dogs [3])?
A: approximately equipotent anesthetic depth

Q: And the “duration of anesthesia (sleep time) compared with propofol” value (Beagle dogs [3]; iv)?
A: similar

Q: And the “effect on BIS compared with propofol” value (Beagle dogs [3]; iv)?
A: greater effect on BIS at doses of at least 15 mg/kg

Q: What about the “duration of anesthesia (sleep time)” value (Beagle dogs [3]; iv, 5 mg/kg) of the same compound?
A: 23 min

Q: And the “duration of anesthesia (sleep time)” value (Beagle dogs [3]; iv, 10 mg/kg)?
A: 33 min

Q: What about the “duration of anesthesia (sleep time)” value (Beagle dogs [3]; iv, 15 mg/kg) of the same compound?
A: 40 min

Q: What about the “duration of anesthesia (sleep time)” value (Beagle dogs [3]; iv, 30 mg/kg) of the same compound?
A: 71 min

Q: And the “episodes of vomiting or retching, drug administered alone” value (Male descented ferrets)?
A: did not produce any episodes of vomiting or retching
